Test results: ChEMBL document CHEMBL4354832, “Discovery of a Covalent Inhibitor of KRASG12C (AMG 510) for the Treatment of Solid Tumors” (J Med Chem, 2020)
pIC50: −log10 of the molar value. In brackets after ≈: the same amount, converted by molar mass. Several values for one entry are separate records, joined by “and”; a condition that tells them apart may be missing. Equal entries are not always repeated.

Columns and labels:
GTPase KRas [1] = target: GTPase KRas (Homo sapiens, UniProt P01116, C118A/G12C); experiment: Inhibition of GDP bound recombinant human His-tagged KRAS G12C/C118A mutant (1 to 169 residues) assessed as reduction in SOS1-mediated GDP/GTP nucleotide exchange by measuring the disruption between GDP-bound recombinant His-tagged KRAS G12C/C118A (1 to 169 residues) and Ras binding domain of GST-tagged c-RAF (1 to 149 residues) preincubated for 5 mins followed by SOS1 and GTP addition and further incubated for 30 mins by AlphaLISA assay
GTPase KRas [2] = target: GTPase KRas (Homo sapiens, UniProt P01116); experiment: Inhibition of KRAS in human MIAPaca2 cells assessed as decrease in EGF-stimulated ERK1/2 phosphorylation preincubated for 2 hrs followed by EGF stimulation; format: cell-based
[3] = Solubility of compound in FaSSIF incubated for 48 to 72 hrs under shaking conditions by LCMS analysis; format: physicochemical
[4] = Permeability of compound across apical to basolateral membrane in MDCK2 cells at 10 to 50 uM incubated for 2 hrs under shaking condition by LC-MS/MS analysis; format: ADME, cell-based, Canis lupus familiaris, MDCK-II; details: dog, MDCK; read-out: permeability
MIA PaCa-2 = experiment: Antiproliferative activity against human MIAPaCa2 cells harboring KRAS G12C point mutant assessed as cell growth inhibition after 72 hrs by Celltiter-Glo luminescent cell viability assay; format: functional, cell-based; details: MIA PaCa-2, 72 h
[5] = Intrinsic clearance in mouse cryopreserved hepatocytes assessed per 10^6 cells at 0.5 uM measured upto 60 mins by LCMS analysis; format: ADME, cell-based, Hepatocyte; details: read-out: CLH
A549 = experiment: Antiproliferative activity against human A549 cells harboring KRAS G12S point mutant assessed as cell growth inhibition after 72 hrs by Celltiter-Glo luminescent cell viability assay; format: functional, cell-based; details: A549, 72 h
[6] = Intrinsic clearance in human cryopreserved hepatocytes assessed per 10^6 cells at 0.5 uM measured upto 60 mins by LCMS analysis; format: ADME, cell-based, Hepatocyte; details: read-out: CLH
[7] = Half life in BALB/c mouse at 1 mg/kg, iv or 10 mg/kg, po; format: ADME, organism-based; details: in vivo
[8] = Oral bioavailability in BALB/c mouse at 10 mg/kg; format: ADME, organism-based; details: in vivo
[9] = Clearance in BALB/c mouse at 1 mg/kg, iv or 10 mg/kg, po; format: ADME, organism-based; details: in vivo
[10] = Volume of distribution at steady state in BALB/c mouse at 1 mg/kg, iv or 10 mg/kg, po; format: ADME, organism-based; details: in vivo, read-out: Vdss
[11] = Solubility of compound in PBS buffer at pH 7.4 incubated for 48 to 72 hrs under shaking conditions by LCMS analysis; format: physicochemical
[12] = Solubility of compound in 0.01N HCl at pH 2 incubated for 48 to 72 hrs under shaking conditions by LCMS analysis; format: physicochemical

| SMILES | pIC50 (GTPase KRas [1]) | pIC50 (GTPase KRas [2]) | solubility thermodynamic [3] [µM] | Papp A→B at 2 h, up to 50 µM [4] [×10⁻⁶ cm/s] | pIC50 (MIA PaCa-2) | hepatocyte CLint at 0.5 µM [5] [µL/min/1e6 cells] | pIC50 (A549) | hepatocyte CLint at 0.5 µM [6] [µL/min/1e6 cells] | half-life [7] [min] | bioavailability [8] [%] | clearance [9] [mL/min/kg] | Vd [10] [L/kg] | solubility thermodynamic [11] [µM] | solubility thermodynamic [12] [µM] |
| --- | --- | --- | --- | --- | --- | --- | --- | --- | --- | --- | --- | --- | --- | --- |
| C=CC(=O)N1CCN(c2nnc(-c3ccccc3)c3cc(-c4c(O)cccc4F)c(Cl)cc23)CC1 | 4.70 | 4.24 | – | – | – | – | – | – | – | – | – | – | – | – |
| C=CC(=O)N1CCN(c2nc(=O)n(-c3ccccc3C(C)C)c3cc(-c4ccccc4C(F)(F)F)c(Cl)cc23)[C@@H](C)C1 | – | – | 218 (≈ 130 µg/mL) | 3 | 7.40 | 270 | 5.13 | 148 | – | – | – | – | – | – |
| C=CC(=O)N1CCN(c2nc(=O)n(-c3ccccc3C(C)C)c3cc(-c4ccccc4Cl)c(Cl)cc23)[C@@H](C)C1 | – | 6.66 | 255 (≈ 143 µg/mL) | 6 | 7.74 | 397 | 5.13 | 317 | – | – | – | – | – | – |
| C=CC(=O)N1CCN(c2nc(=O)n(-c3ccccc3C(C)(C)C)c3nc(-c4c(O)cccc4F)c(Cl)cc23)[C@@H](C)C1 | – | 7.29 | – | – | – | – | – | – | – | – | – | – | – | – |
| C=CC(=O)N1CCN(c2nnc(-c3ccccc3CC)c3cc(-c4c(O)cccc4F)c(Cl)cc23)CC1 | 6.04 | 5.59 | – | – | – | – | – | – | – | – | – | – | – | – |
| C=CC(=O)N1CCN(c2nnc(-c3ccccc3C3CC3)c3cc(-c4c(O)cccc4F)c(Cl)cc23)CC1 | 5.81 | 5.15 | – | – | – | – | – | – | – | – | – | – | – | – |
| C=CC(=O)N1CCN(c2nc(=O)n(-c3ccccc3C(C)C)c3cc(-c4ccccc4F)c(Cl)cc23)[C@@H](C)C1 | – | – | 260 (≈ 142 µg/mL) | 10 | 8.22 | 356 | 5.24 | 166 | 54 | 12 | 26.7 | 1.4 | – | – |
| C=CC(=O)N1CCN(c2nc(=O)n(-c3ccccc3C(C)C)c3nc(-c4c(O)cccc4F)c(Cl)cc23)CC1 | – | – | 204 (≈ 112 µg/mL) | 6 | 7.96 | 109 | 4.94 | 32 | 90 | 1.3 | 13.3 | 0.5 | 14 (≈ 7.67 µg/mL) | 14 (≈ 7.67 µg/mL) |
| C=CC(=O)N1CCN(c2ncnc3c(F)c(-c4c(O)cccc4F)c(Cl)cc23)CC1 | 6.03 | 6.08 | – | – | – | – | – | – | – | – | – | – | – | – |
| C=CC(=O)N1CCN(c2nc(=O)n(-c3ccccc3C(C)C)c3cc(-c4cc(O)cc5ccccc45)c(Cl)cc23)CC1 | – | – | 71 (≈ 41.1 µg/mL) | – | 7.77 | – | 5.57 | – | – | – | – | – | – | – |
| C=CC(=O)N1CCN(c2nc(=O)n(-c3c(C(C)C)ccnc3C)c3nc(-c4c(O)cccc4F)c(Cl)cc23)[C@@H](C)C1 | – | – | 435 (≈ 251 µg/mL) | 2 | 8.52 | 96 | 4.49 | 5 | 24 | < 0.5 | 23.3 | 1.4 | 335 (≈ 193 µg/mL) | 534 (≈ 308 µg/mL) |
| C=CC(=O)N1CCN(c2nc(=O)n(-c3ccccc3C(C)C)c3cc(-c4c(O)cccc4F)c(Cl)cc23)CC1 | 7.00 | 6.47 and 6.89 | 191 (≈ 104 µg/mL) | 2 | 7.48 | 195 | 4.99 | 56 | 204 | < 0.5 | 5 | 0.8 | – | – |
| C=CC(=O)N1CCN(c2nc(=O)n(-c3ccnn3C(C)C)c3nc(-c4c(O)cccc4F)c(Cl)cc23)[C@@H](C)C1 | – | 6.66 | – | – | – | – | – | – | – | – | – | – | – | – |
| C=CC(=O)N1CCN(c2nnc(-c3ccccc3C)c3cc(-c4c(O)cccc4F)c(Cl)cc23)CC1 | 5.24 | 5.48 | – | – | – | – | – | – | – | – | – | – | – | – |
| C=CC(=O)N1CCN(c2nc(=O)n(-c3ccccc3C(C)C)c3cc(-c4c(O)cccc4F)c(Cl)cc23)[C@@H](C)C1 | – | 7.55 | 226 (≈ 127 µg/mL) | 1 | 7.85 | 263 | 4.82 | 113 | – | – | – | – | – | – |
| C=CC(=O)N1CCN(c2nc(=O)n(-c3ccccc3C(C)C)c3cc(-c4c(C)ccc5[nH]ncc45)c(Cl)cc23)CC1 | – | 8.10 | 218 (≈ 124 µg/mL) | 4 | 8.40 | 180 | 5.77 | 121 | 168 | < 0.5 | 70 | 5.3 | – | – |
| C=CC(=O)N1CCN(c2nc(=O)n(-c3ccccc3C3CC3)c3nc(-c4c(O)cccc4F)c(Cl)cc23)[C@@H](C)C1 | 6.65 | 6.96 | – | – | – | – | – | – | – | – | – | – | – | – |
| C=CC(=O)N1CCN(c2nc(=O)n(-c3ccccc3C(C)C)c3nc(-c4ccccc4Cl)c(Cl)cc23)[C@@H](C)C1 | – | – | 175 (≈ 98.4 µg/mL) | 12 | 7.80 | 319 | 5.15 | 205 | 36 | 12 | 90 | 4.8 | – | – |
| C=CC(=O)N1CCN(c2nc(=O)n(-c3ccccc3C(C)C)c3cc(-c4ccccc4F)c(Cl)cc23)CC1 | – | – | 344 (≈ 183 µg/mL) | 7 | 7.66 | 415 | 5.19 | 197 | – | – | – | – | – | – |
| C=CC(=O)N1CCN(c2nc(=O)n(-c3ncccc3C(C)C)c3nc(-c4c(O)cccc4F)c(Cl)cc23)[C@@H](C)C1 | – | 7.28 | – | – | – | – | – | – | – | – | – | – | – | – |
| C=CC(=O)N1CCN(c2nnc(-c3ccccc3Cl)c3cc(-c4c(O)cccc4F)c(Cl)cc23)CC1 | 5.45 | 5.45 | – | – | – | – | – | – | – | – | – | – | – | – |
| C=CC(=O)N1CCN(c2nc(=O)n(-c3ccccc3C(C)C)c3nc(-c4ccccc4F)c(Cl)cc23)[C@@H](C)C1 | – | – | 224 (≈ 122 µg/mL) | 20 | 8.30 | 236 | 5.10 | 135 | 36 | 9 | 60 | 2.3 | 11 (≈ 6.01 µg/mL) | – |
| C=CC(=O)N1CCN(c2nnc(-c3ccccc3OC)c3cc(-c4c(O)cccc4F)c(Cl)cc23)CC1 | 5.04 | 5.09 | – | – | – | – | – | – | – | – | – | – | – | – |
| C=CC(=O)N1CCN(c2nc(=O)n(-c3c(C)cccc3C)c3nc(-c4c(O)cccc4F)c(Cl)cc23)[C@@H](C)C1 | – | 6.70 | – | – | – | – | – | – | – | – | – | – | – | – |
| C=CC(=O)N1CCN(c2nnc(-c3ccccc3C(C)C)c3cc(-c4c(O)cccc4F)c(Cl)cc23)CC1 | 6.17 | 5.74 | – | – | – | – | – | – | – | – | – | – | – | – |
